Reference: PubChem BioAssay (NCI)
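Step 1: Grow cells in 96-well plates. Step 2: Expose to compound for 48 hours at 5 concentrations. Step 3: Interpolate endpoints linearly; if unreached, use highest concentration. GI50: concentration for 50% inhibition of growth. The concentration for full growth arrest is given as TGI.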

How the values were obtained:
Assay in all cases: NCI tumour cell line growth inhibition, 48 h
786-0 renal = system: 786-0 renal
K-562 leukemia = system: K-562 leukemia
TK-10 renal = system: TK-10 renal
U251 CNS = system: U251 CNS
NCI-H522 lung = system: NCI-H522 lung
A549 NSCLC = system: A549 NSCLC
UO-31 renal = system: UO-31 renal
HCT-15 colon = system: HCT-15 colon
HCT-116 colon = system: HCT-116 colon
SK-MEL-28 melanoma = system: SK-MEL-28 melanoma
IGROV1 ovarian = system: IGROV1 ovarian
A498 renal = system: A498 renal
OVCAR-5 ovarian = system: OVCAR-5 ovarian
SF-539 CNS = system: SF-539 CNS
MCF7 breast = system: MCF7 breast
NCI-H460 lung = system: NCI-H460 lung
EKVX NSCLC = system: EKVX NSCLC
MDA-MB-435 = system: MDA-MB-435
UACC-62 melanoma = system: UACC-62 melanoma
CAKI-1 renal = system: CAKI-1 renal
SK-MEL-5 melanoma = system: SK-MEL-5 melanoma
M14 melanoma = system: M14 melanoma
HOP-92 NSCLC = system: HOP-92 NSCLC
HT29 colon = system: HT29 colon
CCRF-CEM leukemia = system: CCRF-CEM leukemia
HCC-2998 colon = system: HCC-2998 colon
OVCAR-3 ovarian = system: OVCAR-3 ovarian
MDA-MB-231 breast = system: MDA-MB-231 breast
SK-MEL-2 melanoma = system: SK-MEL-2 melanoma
SN12C renal = system: SN12C renal
OVCAR-4 ovarian = system: OVCAR-4 ovarian
HOP-62 NSCLC = system: HOP-62 NSCLC
HS 578T breast = system: HS 578T breast
BT-549 breast = system: BT-549 breast
COLO 205 colon = system: COLO 205 colon
SW-620 colon = system: SW-620 colon
ACHN renal = system: ACHN renal
RPMI-8226 leukemia = system: RPMI-8226 leukemia
HL-60(TB) leukemia = system: HL-60(TB) leukemia
PC-3 prostate = system: PC-3 prostate
SNB-75 CNS = system: SNB-75 CNS
MOLT-4 leukemia = system: MOLT-4 leukemia
MALME-3M melanoma = system: MALME-3M melanoma
NCI-H226 lung = system: NCI-H226 lung
SK-OV-3 ovarian = system: SK-OV-3 ovarian
RXF 393 renal = system: RXF 393 renal
OVCAR-8 ovarian = system: OVCAR-8 ovarian
SF-268 CNS = system: SF-268 CNS
UACC-257 melanoma = system: UACC-257 melanoma
NCI-H23 lung = system: NCI-H23 lung
DU-145 prostate = system: DU-145 prostate
SR leukemia = system: SR leukemia
KM12 colon = system: KM12 colon
LOX IMVI melanoma = system: LOX IMVI melanoma
NCI/ADR-RES ovarian = system: NCI/ADR-RES ovarian
SNB-19 CNS = system: SNB-19 CNS

Compound `O=C(NC(=S)Nc1ccc(-c2nc3ccccc3[nH]2)cc1)c1ccc2ccccc2c1` has a GI50 (786-0 renal) of 1.88 µM, a TGI (786-0 renal) of 3.52 µM and a GI50 (K-562 leukemia) of 13.3 µM. It also gave a TGI (K-562 leukemia) greater than 100 µM, a GI50 (TK-10 renal) of 3.33 µM and a TGI (TK-10 renal) of 8.44 µM. It also gave a GI50 (U251 CNS) of 3.62 µM, a TGI (U251 CNS) of 18.1 µM and a GI50 (NCI-H522 lung) of 18.9 µM. The TGI (NCI-H522 lung) was greater than 100 µM, the GI50 (A549 NSCLC) was 3.79 µM and the TGI (A549 NSCLC) was greater than 100 µM. For the same compound, the GI50 (UO-31 renal) was 1.92 µM, the TGI (UO-31 renal) was 3.65 µM and the GI50 (HCT-15 colon) was 3.15 µM. For the same compound, the TGI (HCT-15 colon) was 50.1 µM, the GI50 (HCT-116 colon) was 2.56 µM and the TGI (HCT-116 colon) was 7.33 µM. For the same compound, the GI50 (SK-MEL-28 melanoma) was 3.86 µM, the TGI (SK-MEL-28 melanoma) was 23.4 µM and the GI50 (IGROV1 ovarian) was 7.66 µM. It also gave a TGI (IGROV1 ovarian) greater than 100 µM, a GI50 (A498 renal) of 10.7 µM and a TGI (A498 renal) of 57.8 µM. It also gave a GI50 (OVCAR-5 ovarian) of 3.75 µM, a TGI (OVCAR-5 ovarian) of 16.6 µM and a GI50 (SF-539 CNS) of 2.07 µM. The TGI (SF-539 CNS) was 4.53 µM, the GI50 (MCF7 breast) was 4.56 µM and the TGI (MCF7 breast) was greater than 100 µM. The GI50 (NCI-H460 lung) was 4.29 µM, the TGI (NCI-H460 lung) was greater than 100 µM and the GI50 (EKVX NSCLC) was 22.9 µM. The TGI (EKVX NSCLC) was greater than 100 µM, the GI50 (MDA-MB-435) was 4.27 µM and the TGI (MDA-MB-435) was greater than 100 µM. For the same compound, the GI50 (UACC-62 melanoma) was 4.06 µM, the TGI (UACC-62 melanoma) was greater than 100 µM and the GI50 (CAKI-1 renal) was 1.96 µM. It also gave a TGI (CAKI-1 renal) of 4.58 µM, a GI50 (SK-MEL-5 melanoma) of 3.63 µM and a TGI (SK-MEL-5 melanoma) greater than 100 µM. The GI50 (M14 melanoma) was 4.79 µM, the TGI (M14 melanoma) was greater than 100 µM and the GI50 (HOP-92 NSCLC) was 2.17 µM. It also gave a TGI (HOP-92 NSCLC) of 7.02 µM, a GI50 (HT29 colon) of 4.61 µM and a TGI (HT29 colon) greater than 100 µM. The GI50 (CCRF-CEM leukemia) was 6 µM, the TGI (CCRF-CEM leukemia) was greater than 100 µM and the GI50 (HCC-2998 colon) was 7.15 µM. For the same compound, the TGI (HCC-2998 colon) was greater than 100 µM, the GI50 (OVCAR-3 ovarian) was 3.22 µM and the TGI (OVCAR-3 ovarian) was 10.1 µM. For the same compound, the GI50 (MDA-MB-231 breast) was 2.46 µM, the TGI (MDA-MB-231 breast) was 7.15 µM and the GI50 (SK-MEL-2 melanoma) was 18.3 µM. It also gave a TGI (SK-MEL-2 melanoma) of 48.8 µM, a GI50 (SN12C renal) of 3.18 µM and a TGI (SN12C renal) of 9.81 µM. The GI50 (OVCAR-4 ovarian) was 2.78 µM, the TGI (OVCAR-4 ovarian) was 9.22 µM and the GI50 (HOP-62 NSCLC) was 2.41 µM. The TGI (HOP-62 NSCLC) was 5.58 µM, the GI50 (HS 578T breast) was 3.09 µM and the TGI (HS 578T breast) was 9.94 µM. The GI50 (BT-549 breast) was 2.2 µM, the TGI (BT-549 breast) was 6.73 µM and the GI50 (COLO 205 colon) was 4.98 µM. It also gave a TGI (COLO 205 colon) of 46.5 µM, a GI50 (SW-620 colon) of 4.2 µM and a TGI (SW-620 colon) greater than 100 µM. For the same compound, the GI50 (ACHN renal) was 1.92 µM, the TGI (ACHN renal) was 4.02 µM and the GI50 (RPMI-8226 leukemia) was 2.62 µM. The TGI (RPMI-8226 leukemia) was 9.29 µM, the GI50 (HL-60(TB) leukemia) was 6.31 µM and the TGI (HL-60(TB) leukemia) was 26 µM. It also gave a GI50 (PC-3 prostate) of 3.26 µM, a TGI (PC-3 prostate) of 35.5 µM and a GI50 (SNB-75 CNS) of 1.46 µM. The TGI (SNB-75 CNS) was 3.38 µM, the GI50 (MOLT-4 leukemia) was 8.04 µM and the TGI (MOLT-4 leukemia) was greater than 100 µM. It also gave a GI50 (MALME-3M melanoma) of 2.14 µM, a TGI (MALME-3M melanoma) of 5.54 µM and a GI50 (NCI-H226 lung) of 4.36 µM. The TGI (NCI-H226 lung) was 25.4 µM, the GI50 (SK-OV-3 ovarian) was 12.8 µM and the TGI (SK-OV-3 ovarian) was 37 µM. For the same compound, the GI50 (RXF 393 renal) was 1.92 µM, the TGI (RXF 393 renal) was 3.77 µM and the GI50 (OVCAR-8 ovarian) was 4.11 µM. The TGI (OVCAR-8 ovarian) was greater than 100 µM, the GI50 (SF-268 CNS) was greater than 100 µM and the TGI (SF-268 CNS) was greater than 100 µM. The GI50 (UACC-257 melanoma) was 5.59 µM, the TGI (UACC-257 melanoma) was greater than 100 µM and the GI50 (NCI-H23 lung) was 17.8 µM. For the same compound, the TGI (NCI-H23 lung) was greater than 100 µM, the GI50 (DU-145 prostate) was 3.9 µM and the TGI (DU-145 prostate) was greater than 100 µM. It also gave a GI50 (SR leukemia) of 0.645 µM, a TGI (SR leukemia) of 11.6 µM and a GI50 (KM12 colon) of 6.49 µM. It also gave a TGI (KM12 colon) greater than 100 µM, a GI50 (LOX IMVI melanoma) of 2.14 µM and a TGI (LOX IMVI melanoma) of 4.74 µM. The GI50 (NCI/ADR-RES ovarian) was 4.52 µM, the TGI (NCI/ADR-RES ovarian) was greater than 100 µM and the GI50 (SNB-19 CNS) was 68.1 µM. It also gave a TGI (SNB-19 CNS) greater than 100 µM.
